Results as given in the NIST ThermoML archive (doi:10.1007/s10765-009-0566-6).

Experiment: cn = amount concentration of the nth substance listed, in mol/dm3
Settings: 101 kPa, Liquid, Direct current cell with electrodes

CCCCCn1cc[n+](C)c1.[Cl-] [1-methyl-3-pentylimidazolium chloride] + O
Settings | molar conductivity [S·m2/mol]
298.15 K, c1 = 0.000693 | 0.00871
298.15 K, c1 = 0.001453 | 0.00866
298.15 K, c1 = 0.002097 | 0.00863
298.15 K, c1 = 0.002732 | 0.00862
298.15 K, c1 = 0.004637 | 0.0086
298.15 K, c1 = 0.006272 | 0.00858
298.15 K, c1 = 0.007754 | 0.00852
298.15 K, c1 = 0.01023 | 0.00841
298.15 K, c1 = 0.01283 | 0.00832
298.15 K, c1 = 0.01775 | 0.00817
298.15 K, c1 = 0.02186 | 0.00804
298.15 K, c1 = 0.02704 | 0.00793
298.15 K, c1 = 0.03205 | 0.00783
298.15 K, c1 = 0.0368 | 0.0078
298.15 K, c1 = 0.04132 | 0.00772
298.15 K, c1 = 0.04635 | 0.00763
298.15 K, c1 = 0.05182 | 0.00752
308.15 K, c1 = 0.000752 | 0.00993
308.15 K, c1 = 0.001643 | 0.00975
308.15 K, c1 = 0.002686 | 0.00964
308.15 K, c1 = 0.00347 | 0.00956
308.15 K, c1 = 0.004191 | 0.00959
308.15 K, c1 = 0.005081 | 0.00953
308.15 K, c1 = 0.006215 | 0.00945
308.15 K, c1 = 0.007646 | 0.00937
308.15 K, c1 = 0.009172 | 0.00927
308.15 K, c1 = 0.01102 | 0.00917
308.15 K, c1 = 0.01269 | 0.00912
308.15 K, c1 = 0.01447 | 0.00906
308.15 K, c1 = 0.01625 | 0.00902
308.15 K, c1 = 0.01799 | 0.00895
308.15 K, c1 = 0.01986 | 0.00889
308.15 K, c1 = 0.02253 | 0.00881
308.15 K, c1 = 0.02549 | 0.00873
308.15 K, c1 = 0.02884 | 0.00863
308.15 K, c1 = 0.03245 | 0.00856
308.15 K, c1 = 0.0363 | 0.00846
308.15 K, c1 = 0.04073 | 0.00837
308.15 K, c1 = 0.04603 | 0.0082
308.15 K, c1 = 0.04936 | 0.00814
318.15 K, c1 = 0.000273 | 0.0115
318.15 K, c1 = 0.000592 | 0.0114
318.15 K, c1 = 0.001207 | 0.0112
318.15 K, c1 = 0.002002 | 0.0111
318.15 K, c1 = 0.002757 | 0.011
318.15 K, c1 = 0.003483 | 0.0108
318.15 K, c1 = 0.004458 | 0.0107
318.15 K, c1 = 0.005601 | 0.0106
318.15 K, c1 = 0.007348 | 0.0105
318.15 K, c1 = 0.008904 | 0.0104
318.15 K, c1 = 0.01052 | 0.0103
318.15 K, c1 = 0.0124 | 0.0102
318.15 K, c1 = 0.01478 | 0.0101
318.15 K, c1 = 0.01661 | 0.01
318.15 K, c1 = 0.0196 | 0.00989
318.15 K, c1 = 0.02241 | 0.00978
318.15 K, c1 = 0.02545 | 0.00966
318.15 K, c1 = 0.02897 | 0.00953
318.15 K, c1 = 0.03318 | 0.00939
318.15 K, c1 = 0.03779 | 0.00924
328.15 K, c1 = 0.000588 | 0.0119
328.15 K, c1 = 0.001076 | 0.0118
328.15 K, c1 = 0.001612 | 0.0117
328.15 K, c1 = 0.002109 | 0.0116
328.15 K, c1 = 0.002949 | 0.0116
328.15 K, c1 = 0.003721 | 0.0116
328.15 K, c1 = 0.004608 | 0.0115
328.15 K, c1 = 0.005897 | 0.0113
328.15 K, c1 = 0.007087 | 0.0111
328.15 K, c1 = 0.008632 | 0.011
328.15 K, c1 = 0.01034 | 0.0108
328.15 K, c1 = 0.01229 | 0.0106
328.15 K, c1 = 0.01539 | 0.0105
328.15 K, c1 = 0.01788 | 0.0104
328.15 K, c1 = 0.02011 | 0.0103
328.15 K, c1 = 0.02273 | 0.0101
